Read-outs that look alike come from different tables or passages of the source.
Tests used:
human plasma kallikrein = human plasma kallikrein (Homo sapiens (Human), UniProt P03952); experiment: Kallikrein inhibition assay (FLINT) utilizing a quenched AMC peptide substrate; format: biochemical; conditions: 30 min preincubation, kinetic reads over 30 min, Z-Gly-Pro-Arg-AMC substrate 50 μM; read-out: Kallikrein Kin Inh IC50
Method: Biological Example 2: Kallikrein Inhibition Assay Utilizing a Quenched AMC Peptide Substrate A fluorescence intensity (FLINT) based assay was used to monitor inhibition of human plasma kallikrein.
The Kallikrein FLINT assay was used with the following Z-Gly-Pro-Arg-AMC assay buffer: 50 mM Tris, pH 7.5, 100 mM NaCl, 5 mM CaCl2), 0.1 mg/mL BSA, 0.03% CHAPS. Assay buffer was prepared by mixing all ingredients fresh. 2×Z-Gly-Pro-Arg-AMC peptide substrate was prepared by diluting 10 mM stock into 1×assay buffer for a 100 μM working concentration (50 μM final concentration). The 2×kallikrein stock solution was prepared by diluting 14.76 μM stock in 1×assay buffer for a 4 nM working stock solution (2 nM final concentration).
Test compound(s) were run in an 11-point, 3-fold serial dilution with a final top compound concentration of 1 μM. Final DMSO in assay was 2%. Plasma kallikrein was pre-incubated for 30-minute with compound and then 50 μM substrate was added to initiate the reaction. The assay was run with kinetic (KIN) reads at 5 min intervals over 30 minutes. […] More specifically, the assay was run as follows: • 100 nL of 0.1 mM test compound was dispensed into black 384-well non-binding Greiner BioOne 784900 plate for 1 μM final concentration; • 5 μL of 1×assay buffer was dispensed to columns 24 (low control) and 5 μL 2×human kallikrein enzyme solution was dispensed to columns 1-23 (column 23 high control); • the plate was centrifuged with a “cover” plate at 500 rpm for 1 min • the plate was pre-incubated for 30 minutes at room temperature with plate covered; • 5 μL of 2×Z-Gly-Pro-Arg-AMC peptide substrate was dispensed into the entire plate, columns 1-24; • the plate was centrifuged with a “cover” plate at 500 rpm for 1 min; • the plate was read monitoring fluorescence intensity on the BMG PHERAStar at room temperature, using fluorescence module 340 nm/440 nm.
(§1) Percent inhibition (IC50) curves were generated per compound tested, and data was analyzed using a 4-parameter logistic fit using GeneData Screener. The relative fluorescence unit (RFU) values were normalized to percent inhibition using the following equation:
% inhibition=((HC-LC)−(compound-LC)\(HC-LC))*100 where LC—low control=mean signal of human kallikrein enzyme or 100% inhibition of human kallikrein enzyme; HC—high control=mean signal of Factor XIa+Z-Gly-Pro-Arg-AMC peptide substrate with DMSO only.
(§2) An 11-point dose response curve for the test compound(s) was generated using GENDATA to determine IC50 value based on the following equation:
Y=Bottom+(Top-Bottom)/(1+10^((logIC50−X)*HillSlope)) where Y is the % inhibition in the presence of X inhibitor concentration, Top=high control=mean signal of human kallikrein enzyme+Z-Gly-Pro-Arg-AMC peptide substrate with DMSO only; Bottom=low control−mean signal of no human kallikrein enzyme or 100% inhibition of human kallikrein enzyme; HillSlope—Hill coefficient; and IC50=concentration of compound with 50% inhibition in relation to top/high control.

Factor XIa = Factor XIa (Homo sapiens (Human), UniProt P03951); experiment: Factor XIa inhibition assay (FLINT) utilizing a fluorophore-quencher pair peptide substrate; format: biochemical; conditions: 30 min preincubation, kinetic reads over 30 min, read-out: FXIa Kin Inh IC50
Chain of Factor XIa (P03951 388-625): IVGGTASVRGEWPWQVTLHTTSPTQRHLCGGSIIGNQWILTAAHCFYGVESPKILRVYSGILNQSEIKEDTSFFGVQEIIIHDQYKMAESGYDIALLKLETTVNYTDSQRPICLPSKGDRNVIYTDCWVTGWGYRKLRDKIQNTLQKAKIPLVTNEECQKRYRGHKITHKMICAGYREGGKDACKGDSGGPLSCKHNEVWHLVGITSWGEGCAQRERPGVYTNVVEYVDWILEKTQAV
Chain of Factor XIa (P03951 19-387 partner): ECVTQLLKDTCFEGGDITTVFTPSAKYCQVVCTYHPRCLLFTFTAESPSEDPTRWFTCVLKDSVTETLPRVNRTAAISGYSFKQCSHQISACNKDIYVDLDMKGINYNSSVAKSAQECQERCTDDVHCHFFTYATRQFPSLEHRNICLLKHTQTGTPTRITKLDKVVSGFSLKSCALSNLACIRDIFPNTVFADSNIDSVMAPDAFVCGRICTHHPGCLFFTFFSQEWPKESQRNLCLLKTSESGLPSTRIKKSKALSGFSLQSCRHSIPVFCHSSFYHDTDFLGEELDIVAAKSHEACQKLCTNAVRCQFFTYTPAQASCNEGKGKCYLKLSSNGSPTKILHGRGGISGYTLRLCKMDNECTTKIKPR
Text: Biological Example 1: Factor XIa Inhibition Assay Utilizing a Fluorophore-Quencher Pair Peptide Substrate
A fluorescence intensity (FLINT) based assay was used to monitor inhibition of Factor XIa. The peptide substrate, 5Fam-[…]-K5Tamra (purchased from New England Peptide) was chosen based on the FXI sequence. Conversion of zymogen […]. The custom peptide used in this assay was based on the Arg146 cleavage site of FXI. The peptide substrate was designed with a fluorophore-quencher pair, where the fluorescence is quenched until FXIa cleaves the 8-mer peptide after the Arg residue.
The Factor XIa FLINT assay was used with the following 5Fam-[…]-K5Tamra assay buffer: 50 mM Tris, pH 7.5, 100 mM NaCl, 5 mM CaCl2), 0.1 mg/mL BSA, 0.03% CHAPS. Assay buffer was prepared by mixing all ingredients fresh. 5Fam-[…]-K5Tamra peptide substrate was first prepared at 10 mM in 100% DMSO, then diluted to 3 mM in 100% DMSO. Assay buffer was then added directly to the 3 mM stock of substrate to prepare the 30 μM 2× working concentration (15 μM final concentration). The 2×Factor XIa stock solution was prepared by diluting 6.562 μM stock in 1×assay buffer for a 200 μM working stock solution (100 μM final concentration).
Test compound(s) were run in an 11-point, 3-fold serial dilution with a final top compound concentration of 100 nM. Final DMSO in assay was 2%. FXIa was preincubated with compound for 30-minutes and then substrate was added to initiate the reaction. The assay was run with kinetic (KIN) reads at 5 min intervals over 30 minutes. The time course was linear using 100 μM FXIa greater than 30 minutes. More specifically, the assay was run as follows: • 100 nL of 0.01 mM test compound was dispensed into black 384 well non-binding Greiner BioOne 784900 plate for 0.1 μM final concentration; • 5 μL of 1×assay buffer was dispensed to column 24 (low control) and 5 μL 2×Factor XIa solution was dispensed to columns 1-23 (column 23 high control); • the plate was centrifuged with a “cover” plate at 500 rpm for 1 min • the plate was pre-incubated for 30 minutes at room temperature with plate covered; • 5 μL of 2×5Fam-[…]-K5Tamra peptide substrate was dispensed into the entire plate, columns 1-24; • the plate was centrifuged with a “cover” plate at 500 rpm for 1 min; • the plate was read monitoring fluorescence intensity on the BMG PHERAStar at room temperature, using fluorescence module 485 nm/520 nm.
as §1
% inhibition=((HC-LC)−(compound−LC)/(HC-LC))*100
where LC—low control=mean signal of no Factor XIa or 100% inhibition of Factor XIa; HC—high control=mean signal of Factor XIa+5Fam-[…]-K5Tamra peptide substrate with DMSO only.
as §2
Y=Bottom+(Top-Bottom)/(1+10^((logIC50-X)*HillSlope))
where Y is the % inhibition in the presence of X inhibitor concentration, Top=high control=mean signal of Factor XIa+5Fam-[…] K5Tamra peptide substrate with DMSO only; Bottom=low control−mean signal of no Factor XIa or 100% inhibition of Factor XIa; HillSlope—Hill coefficient; and IC50=concentration of compound with 50% inhibition in relation to top/high control.
Representative compounds of the present invention were tested according to the procedure described in Biological Example 1 and Biological Example 2 above, with results as listed in Table 3, below.

[1] = 5Fam-KLTRAETV-K5Tamra substrate 15 μM
[2] = 5Fam-[…]-K5Tamra substrate 15 μM

Chain of human plasma kallikrein (P03952 391-638): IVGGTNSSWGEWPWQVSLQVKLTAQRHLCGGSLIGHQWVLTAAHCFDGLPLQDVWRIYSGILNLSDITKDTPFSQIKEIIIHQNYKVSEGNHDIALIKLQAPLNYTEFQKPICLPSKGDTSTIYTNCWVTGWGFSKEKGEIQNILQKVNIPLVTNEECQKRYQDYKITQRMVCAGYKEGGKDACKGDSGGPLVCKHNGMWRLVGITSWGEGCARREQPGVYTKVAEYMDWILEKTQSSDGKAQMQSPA
Chain of human plasma kallikrein (P03952 20-390 partner): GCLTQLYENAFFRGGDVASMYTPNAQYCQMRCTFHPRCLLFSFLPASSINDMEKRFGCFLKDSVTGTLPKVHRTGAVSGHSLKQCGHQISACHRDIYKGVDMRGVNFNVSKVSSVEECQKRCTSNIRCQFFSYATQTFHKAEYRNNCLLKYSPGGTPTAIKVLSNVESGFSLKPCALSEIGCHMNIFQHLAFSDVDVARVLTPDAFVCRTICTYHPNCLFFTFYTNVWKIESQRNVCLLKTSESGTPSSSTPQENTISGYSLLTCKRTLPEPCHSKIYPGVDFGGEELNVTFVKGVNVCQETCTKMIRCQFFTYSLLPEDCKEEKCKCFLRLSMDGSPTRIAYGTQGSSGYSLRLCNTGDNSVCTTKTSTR

SMILES	IC50 (human plasma kallikrein)	IC50 (Factor XIa; [1])	IC50 (Factor XIa; [2])
O=C1C=C(c2c(-n3cc(C(F)(F)F)nn3)ccc(Cl)c2F)CC2CC[C@@H](c3ncc(-c4c[nH]c5ncncc45)[nH]3)N12 (stereo partly drawn) [Example 365, (3S)-3-(5-(7H-pyrrolo[2,3-d]pyrimidin-5-yl)-1H-imidazol-2-yl)-7-(3-chloro-2-fluoro-6-(4-(trifluoromethyl)-1H-1,2,3-triazol-1-yl)phenyl)-2,3,8,8a-tetrahydroindolizin-5(1H)-one]	7.3 nM	2.7 nM	
CC(C)(CO)Nc1nccc(-c2cnc([C@@H]3CC[C@@H]4CC(c5c(-n6cnnn6)ccc(Cl)c5F)=CC(=O)N43)[nH]2)c1F [Example 89, (3S,8aR)-7-[3-chloro-2-fluoro-6-(tetrazol-1-yl)phenyl]-3-[5-[3-fluoro-2-[(2-hydroxy-1,1-dimethyl-ethyl)amino]-4-pyridyl]-1H-imidazol-2-yl]-2,3,8,8a-tetrahydro-1H-indolizin-5-one]	7.4 nM	5.8 nM	
CC(C)(O)CCc1nccc(-c2cnc([C@@H]3CC[C@@H]4CC(c5c(-n6cnnn6)ccc(Cl)c5F)=CC(=O)N43)[nH]2)c1F (single isomer, unassigned) [Example 158, (3*S,8a*R)-7-(3-chloro-2-fluoro-6-(1H-tetrazol-1-yl)phenyl)-3-(5-(3-fluoro-2-(3-hydroxy-3-methylbutyl)pyridin-4-yl)-1H-imidazol-2-yl)-2,3,8,8a-tetrahydroindolizin-5(1H)-one]	7.8 nM	1 nM	
O=C1C=C(c2c(-n3cnnn3)ccc(Cl)c2F)C[C@H]2CC[C@H](c3ncc(-c4ccnc(COCP(=O)(O)O)c4F)[nH]3)N12 (relative stereo) [Example 37, (((4-(24(3R*,8aR)-7-(3-chloro-2-fluoro-6-(1H-tetrazol-1-yl)phenyl)-5-oxo-1,2,3,5,8,8a-hexahydroindolizin-3-yl)-1H-imidazol-5-yl)-3-fluoropyridin-2-yl)methoxy)methyl)phosphonic acid]	55.8 nM		1.3 nM
CO[C@@H]1C[C@@H](c2nc(-c3ccc(N)nc3F)c[nH]2)N2C(=O)C=C(c3c(-n4cnnn4)ccc(Cl)c3F)CC12 (stereo partly drawn) [Example 327, (1R,3S)-3-(4-(6-Amino-2-fluoropyridin-3-yl)-1H-imidazol-2-yl)-7-(3-chloro-2-fluoro-6-(1H-tetrazol-1-yl)phenyl)-1-methoxy-2,3,8,8a-tetrahydroindolizin-5(1H)-one]	9.5 nM	0.6 nM	
COc1ccc(-c2c[nH]c([C@@H]3CC[C@@H]4CC(c5c(-n6cnnn6)ccc(Cl)c5F)=CC(=O)N43)n2)c(NC(=O)C2CC2)c1 [Example 266, N-(2-(2-((3S,8aR)-7-(3-Chloro-2-fluoro-6-(1H-tetrazol-1-yl)phenyl)-5-oxo-1,2,3,5,8,8a-hexahydroindolizin-3-yl)-1H-imidazol-4-yl)-5-methoxyphenyl)cyclopropanecarboxamide]	1.1 nM	0.9 nM	
O=C1C=C(c2c(OC(F)F)ccc(Cl)c2F)C[C@H]2CC[C@@H](c3ncc(-c4ccnc(CO)c4F)[nH]3)N12 [Example 25, (3S,8aR)-7-(3-Chloro-6-(difluoromethoxy)-2-fluorophenyl)-3-(5-(3-fluoro-2-(hydroxymethyl)pyridin-4-yl)-1H-imidazol-2-yl)-2,3,8,8a-tetrahydroindolizin-5(1H)-one]	480 nM	> 100 nM	
O=C1C=C(c2c(-n3cnnn3)ccc(Cl)c2F)C[C@H]2CC[C@@H](c3ncc(-c4c[nH]nc4F)[nH]3)N12 [Example 217, (3S,8aR)-7-(3-Chloro-2-fluoro-6-(1H-tetrazol-1-yl)phenyl)-3-(5-(3-fluoro-1H-pyrazol-4-yl)-1H-imidazol-2-yl)-2,3,8,8a-tetrahydroindolizin-5(1H)-one]	32.6 nM	4.5 nM	
NC(=O)c1ncc(-c2c[nH]c([C@@H]3CC[C@@H]4CC(c5c(-n6cnnn6)ccc(Cl)c5F)=CC(=O)N43)n2)s1 [Example 205, 5-(2-((3S,8aR)-7-(3-Chloro-2-fluoro-6-(1H-tetrazol-1-yl)phenyl)-5-oxo-1,2,3,5,8,8a-hexahydroindolizin-3-yl)-1H-imidazol-4-yl)thiazole-2-carboxamide]	12.5 nM	3.3 nM	
NC(=O)c1ncc(-c2c[nH]c([C@@H]3CC[C@H]4CC(c5c(-n6cc(C(F)(F)F)nn6)ccc(Cl)c5F)=CC(=O)N43)n2)s1 (single isomer, unassigned) [Example 209]	37.9 nM	46.5 nM	
NC(=O)c1cc(-c2c[nH]c([C@@H]3CCC4CC(c5c(-n6cnnn6)ccc(Cl)c5F)=CC(=O)N43)n2)cs1 (stereo partly drawn) [Example 219, 4-(2-((3S)-7-(3-Chloro-2-fluoro-6-(1H-tetrazol-1-yl)phenyl)-5-oxo-1,2,3,5,8,8a-hexahydroindolizin-3-yl)-1H-imidazol-4-yl)thiophene-2-carboxamide]	1.9 nM	2.1 nM	
CC(C)Oc1ccccc1-c1cnc([C@@H]2CCC3CC(c4c(-n5cnnn5)ccc(Cl)c4F)=CC(=O)N32)[nH]1 (some centres unmarked) [Example 294]	46.2 nM	77 nM	
N#CC1CN(c2nccc(-c3cnc([C@H]4CC[C@@H]5CC(c6c(-n7cnnn7)ccc(Cl)c6F)=CC(=O)N54)[nH]3)c2F)C1 (single isomer, unassigned) [Example 102, 1-(4-(24(3R*,8aR)-7-(3-chloro-2-fluoro-6-(1H-tetrazol-1-yl)phenyl)-5-oxo-1,2,3,5,8,8a-hexahydroindolizin-3-yl)-1H-imidazol-5-yl)-3-fluoropyridin-2-yl)azetidine-3-carbonitrile]	9.6 nM		10.3 nM

From patent publication US20230295157A1, “3-(1H-IMIDAZOL-2-YL)-2,3,8,8A-TETRAHYDROINDOLIZIN-5(1H)-ONE DERIVATIVES USEFUL AS FACTOR XIA INHIBITORS” (JANSSEN PHARMACEUTICA NV, priority 2020, published 2023)
